# From article PMC10135569, “Does Enhanced Structural Maturity of hiPSC-Cardiomyocytes Better for the Detection of Drug-Induced Cardiotoxicity?” (Biomolecules, 2023)
# How the values were obtained:
# [1] = system: hiPSC-CMs (iCell2 Cardiomyocytes) 2D monolayers; test: Membrane potential (action potential) recordings with FluoVolt voltage-sensitive dye on the CellOPTIQ platform; type: cell-based, human; settings: for activity at 0.01 µM / activity at 0.03 µM / activity at 0.1 µM / activity at 0.3 µM: Homo sapiens, Cardiomyocyte, 0.5 h, 30 min, delta over DMSO 0.1%
# Method in brief: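 iCell2 hiPSC-CM monolayers (50,000 cells/well on fibronectin or Matrix Plus, days 5–6) were loaded with FluoVolt (1:1000, 20 min, 37 °C) and imaged at 37 °C with 470 nm excitation and 510–560 nm emission sampled at 10 kHz. Spontaneous action potentials were recorded for 10 s at baseline and 30 min after drug, with one of four concentrations per well (n = 8).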
# [2] = system: hiPSC-CMs (iCell2 Cardiomyocytes) 2D monolayers; test: Contractility measurements using video imaging (ContractilityTool / MUSCLEMOTION); type: cell-based, human; settings: for activity at 0.01 µM / activity at 0.03 µM / activity at 0.1 µM / activity at 0.3 µM: Homo sapiens, Cardiomyocyte, 0.5 h, 30 min, delta over DMSO 0.1%
# Method in brief: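 Monolayers on fibronectin or Matrix Plus coating, tested on days 5–6 in serum-free medium. Four concentrations, one per well, n = 8, with vehicle control.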
# [3] = FM monolayer, read-out: APD30 (%DD)
# [4] = FM monolayer, read-out: APD90 (%DD)
# [5] = FM monolayer, read-out: CL (%DD)
# [6] = FM monolayer, read-out: Trise (%DD)
# [7] = MM monolayer, read-out: APD30 (%DD)
# [8] = MM monolayer, read-out: APD90 (%DD)
# [9] = MM monolayer, read-out: CL (%DD)
# [10] = MM monolayer, read-out: Trise (%DD)
# [11] = both FM and MM monolayers, concentration not given
# [12] = FM monolayer, read-out: CtAmp (%DD)
# [13] = FM monolayer, read-out: CtD50 (%DD)
# [14] = MM monolayer, read-out: CtAmp (%DD)
# [15] = MM monolayer, read-out: CtD50 (%DD)
# [16] = 300 nM, both 2D systems, positive control
smiles,measurement,setting,value
COc1ccc([C@@H]2Sc3ccccc3N(CCN(C)C)C(=O)[C@@H]2OC(C)=O)cc1 [Diltiazem],activity at 0.01 µM,[1]; [3],98 ± 1.9%
same,activity at 0.01 µM,[1]; [4],96 ± 1.1%
same,activity at 0.01 µM,[1]; [5],102 ± 1.1%
same,activity at 0.01 µM,[1]; [6],105 ± 17%
same,activity at 0.03 µM,[1]; [3],92 ± 1.5%
same,activity at 0.03 µM,[1]; [4],92 ± 0.9%
same,activity at 0.03 µM,[1]; [5],103 ± 1.3%
same,activity at 0.03 µM,[1]; [6],103 ± 12.5%
same,activity at 0.1 µM,[1]; [3],76 ± 2.7%
same,activity at 0.1 µM,[1]; [4],78 ± 2.2%
same,activity at 0.1 µM,[1]; [5],96 ± 0.8%
same,activity at 0.1 µM,[1]; [6],91 ± 12%
same,activity at 0.3 µM,[1]; [3],60 ± 1.3%
same,activity at 0.3 µM,[1]; [4],62 ± 1.1%
same,activity at 0.3 µM,[1]; [5],85 ± 0.5%
same,activity at 0.3 µM,[1]; [6],116 ± 13.8%
same,activity at 0.01 µM,[1]; [7],100 ± 1.9%
same,activity at 0.01 µM,[1]; [8],96 ± 0.6%
same,activity at 0.01 µM,[1]; [9],98 ± 0.9%
same,activity at 0.01 µM,[1]; [10],86 ± 16.4%
same,activity at 0.03 µM,[1]; [7],91 ± 1.2%
same,activity at 0.03 µM,[1]; [8],90 ± 0.7%
same,activity at 0.03 µM,[1]; [9],96 ± 0.9%
same,activity at 0.03 µM,[1]; [10],79 ± 4%
same,activity at 0.1 µM,[1]; [7],80 ± 1.6%
same,activity at 0.1 µM,[1]; [8],77 ± 1.2%
same,activity at 0.1 µM,[1]; [9],83 ± 0.6%
same,activity at 0.1 µM,[1]; [10],79 ± 14.3%
same,activity at 0.3 µM,[1]; [7],65 ± 0.8%
same,activity at 0.3 µM,[1]; [8],62 ± 0.9%
same,activity at 0.3 µM,[1]; [9],71 ± 0.5%
same,activity at 0.3 µM,[1]; [10],74 ± 8.9%
same,effect on APD30 (in words),[1]; [11],shortening
same,effect on APD90 (in words),[1]; [11],shortening
same,effect on beating rate / spontaneous rate (in words),"[1]; both FM and MM, concentration not given",increase
same,activity at 0.01 µM,[2]; [12],142 ± 27.5%
same,activity at 0.01 µM,[2]; [13],103 ± 2.8%
same,activity at 0.03 µM,[2]; [12],127 ± 27.9%
same,activity at 0.03 µM,[2]; [13],95 ± 1.4%
same,activity at 0.1 µM,[2]; [12],108 ± 33.5%
same,activity at 0.1 µM,[2]; [13],82 ± 1.6%
same,activity at 0.3 µM,[2]; [12],59 ± 15.4%
same,activity at 0.3 µM,[2]; [13],68 ± 1.4%
same,activity at 0.01 µM,[2]; [14],101 ± 11.1%
same,activity at 0.01 µM,[2]; [15],105 ± 2.7%
same,activity at 0.03 µM,[2]; [14],94 ± 7.8%
same,activity at 0.03 µM,[2]; [15],99 ± 2.6%
same,activity at 0.1 µM,[2]; [14],93 ± 6.2%
same,activity at 0.1 µM,[2]; [15],81 ± 1.2%
same,activity at 0.3 µM,[2]; [14],73 ± 5.8%
same,activity at 0.3 µM,[2]; [15],61 ± 1.9%
CC(C)NCC(O)c1ccc(O)c(O)c1 (stereo not shown) [Isoprenaline],effect on APD90,[1]; [16],decreased
same,effect on spontaneous beat rate,[1]; [16],increased
same,activity at 0.01 µM,[1]; [3],97 ± 2%
same,activity at 0.01 µM,[1]; [4],94 ± 1.9%
same,activity at 0.01 µM,[1]; [5],90 ± 1.4%
same,activity at 0.01 µM,[1]; [6],80 ± 7.3%
same,activity at 0.03 µM,[1]; [3],85 ± 1.7%
same,activity at 0.03 µM,[1]; [4],77 ± 0.6%
same,activity at 0.03 µM,[1]; [5],74 ± 0.6%
same,activity at 0.03 µM,[1]; [6],97 ± 8.6%
same,activity at 0.1 µM,[1]; [3],68 ± 0.8%
same,activity at 0.1 µM,[1]; [4],60 ± 1%
same,activity at 0.1 µM,[1]; [5],56 ± 0.6%
same,activity at 0.1 µM,[1]; [6],106 ± 4.5%
same,activity at 0.3 µM,[1]; [3],62 ± 1%
same,activity at 0.3 µM,[1]; [4],52 ± 0.5%
same,activity at 0.3 µM,[1]; [5],49 ± 0.6%
same,activity at 0.3 µM,[1]; [6],106 ± 8.1%
same,activity at 0.01 µM,[1]; [7],92 ± 0.8%
same,activity at 0.01 µM,[1]; [8],96 ± 0.8%
same,activity at 0.01 µM,[1]; [9],90 ± 0.9%
same,activity at 0.01 µM,[1]; [10],146 ± 13.3%
same,activity at 0.03 µM,[1]; [7],83 ± 0.9%
same,activity at 0.03 µM,[1]; [8],86 ± 1%
same,activity at 0.03 µM,[1]; [9],77 ± 0.6%
same,activity at 0.03 µM,[1]; [10],115 ± 12.9%
same,activity at 0.1 µM,[1]; [7],68 ± 1.5%
same,activity at 0.1 µM,[1]; [8],68 ± 1.2%
same,activity at 0.1 µM,[1]; [9],63 ± 0.8%
same,activity at 0.1 µM,[1]; [10],93 ± 5.5%
same,activity at 0.3 µM,[1]; [7],62 ± 0.8%
same,activity at 0.3 µM,[1]; [8],61 ± 0.9%
same,activity at 0.3 µM,[1]; [9],56 ± 0.8%
same,activity at 0.3 µM,[1]; [10],129 ± 10.9%
same,effect on APD90 (in words),[1]; [11],significantly decreased
same,effect on contraction duration,[2]; [16],decreased
same,activity at 0.01 µM,[2]; [12],94 ± 5.2%
same,activity at 0.01 µM,[2]; [13],94 ± 1%
same,activity at 0.03 µM,[2]; [12],90 ± 8.3%
same,activity at 0.03 µM,[2]; [13],88 ± 4.6%
same,activity at 0.1 µM,[2]; [12],125 ± 17.9%
same,activity at 0.1 µM,[2]; [13],76 ± 2.8%
same,activity at 0.3 µM,[2]; [12],68 ± 8.5%
same,activity at 0.3 µM,[2]; [13],58 ± 1.6%
same,activity at 0.01 µM,[2]; [14],123 ± 14.4%
same,activity at 0.01 µM,[2]; [15],96 ± 2.3%
same,activity at 0.03 µM,[2]; [14],112 ± 11.7%
same,activity at 0.03 µM,[2]; [15],88 ± 2.3%
same,activity at 0.1 µM,[2]; [14],121 ± 16.1%
same,activity at 0.1 µM,[2]; [15],68 ± 2.7%
same,activity at 0.3 µM,[2]; [14],105 ± 14.9%
same,activity at 0.3 µM,[2]; [15],57 ± 1.8%
